According to patent US6894038B2, “Use of biogenic estriol diester prodrugs for the treatment of autoimmune diseases” (Schering Aktiengesellschaft, priority 2002, dated 2005):

Columns and labels:
[1] = system: Lewis rat EAE model; test: Lewis rat acute EAE model, clinical score; type: in vivo; settings: female Lewis rats, 1000 ug/rat s.c. on day 1 and day 15; chronic stage of disease; ANOVA vs vehicle p≦0.028; FIG. 1
[2] = system: CD4+ lymphocytes of MS patients; settings: concentrations at a similar level as in pregnancy; Correale et al. 1998; cited from earlier work
[3] = system: experimental autoimmune encephalomyelitis (EAE); settings: levels equal to those found in pregnancy; Kim et al. 1999, Jansson et al. 1994; cited from earlier work
[4] = oral, 12 mg/day; Lindsay et al. 1979; cited from earlier work
[5] = Heithecker et al., 1991; cited from earlier work
[6] = administered orally; cited from earlier work

SMILES | clinical score (EAE) [1] | secretion of anti-inflammatory cytokine IL-10 [2] | amelioration of disease (EAE) [3] | osteoprotective effects [4] | half-life [5] [h] | bioavailability [6]
CCCCCC(=O)Oc1ccc2c(c1)CC[C@@H]1[C@@H]2CC[C@@]2(C)[C@H]1C[C@@H](O)[C@@H]2OC(=O)CCCCC [3,17β-di-n-hexanoyloxy-1,3,5(10)-estratriene-16α-ol] | efficacious in lowering the clinical score | – | – | – | – | –
C[C@]12CC[C@@H]3c4ccc(O)cc4CC[C@H]3[C@@H]1C[C@@H](O)[C@@H]2O [estriol] | – | stimulated | capable of ameliorating disease | not able to show the osteoprotective effects | 1.5 to 5.3 | low
